Each compound was assayed against activated ERK2 (Homo sapiens (Human), UniProt P28482) (assay: Activated ERK2 kinase assay, ERK2 New conditions (AlphaScreen, ERKtide phosphorylation)). Details: 0.25 nM ERK2, 200 nM ERKtide peptide, 35 μM ATP, 30 min preincubation.
Type: biochemical
Description: The assay is carried out in 50 mM HEPES [pH 7.5], 5 mM MgCl2, 1 mM DTT, 0.01% Tween-20, 0.05% BSA using 0.25 nM ERK2, 200 nM ERKtide peptide and 35 μM ATP (all concentrations are final in the reaction) in a total volume of 10.25 μL. […] Compound dilution series are prepared in 100% DMSO. ERK2 is preincubated with compounds for 30 minutes at ambient temperature. Reaction is initiated by addition of a substrate cocktail of ERKtide peptide and ATP and is allowed to proceed for 2-3 hours at ambient temperature. Reaction is terminated by addition of 10 μL of a 2× stop buffer consisting of 100 mM Tris-Cl [pH 7.5], 25 mM EDTA, 0.01% Tween 20, 10 μg/mL of AlphaScreen Protein A Acceptor Beads, 10 μg/mL of Streptavidin Donor Beads (PerkinElmer, Waltham, Mass.), and 1.4 μg/mL phospho-EGF Receptor (Thr669) antibody (Cat #3056, Cell Signaling Technology, Danvers, Mass.). Terminated reactions are read, after overnight incubation in the dark, on an EnVision Multilabel Plate Reader (PerkinElmer, Waltham, Mass.), with excitation and emission wavelengths set to 680 nm and 570 nm, respectively. IC50 values are determined using a four-parameter fit.

activated ERK2, sequence (P28482 whole entry): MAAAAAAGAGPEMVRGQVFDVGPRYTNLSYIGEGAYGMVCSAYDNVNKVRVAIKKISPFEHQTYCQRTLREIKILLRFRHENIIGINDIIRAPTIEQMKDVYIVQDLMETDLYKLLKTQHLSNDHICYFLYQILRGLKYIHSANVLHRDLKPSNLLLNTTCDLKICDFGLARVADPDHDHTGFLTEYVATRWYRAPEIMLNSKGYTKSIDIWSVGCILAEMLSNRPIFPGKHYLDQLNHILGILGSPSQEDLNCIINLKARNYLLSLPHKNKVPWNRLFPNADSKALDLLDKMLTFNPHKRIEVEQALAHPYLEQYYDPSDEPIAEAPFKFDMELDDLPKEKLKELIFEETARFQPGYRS

Row | SMILES | IC50
1 | Nc1ncc([C@@H]2CN[C@H](CO)C2)cc1-c1ccc(C(=O)N[C@H](CO)c2cccc(Cl)c2)c(F)c1 [Example 7, 4-(2-amino-5-((3R,5S)-5-(hydroxymethyl)pyrrolidin-3-yl)pyridin-3-yl)-N—((S)-1-(3-chlorophenyl)-2-hydroxyethyl)-2-fluorobenzamide] | 65.2 nM
2 | Nc1ncc([C@H]2C[C@H]3COCC(=O)N3C2)cc1-c1ccc(C(=O)N[C@H](CO)c2cccc(Cl)c2)c(F)c1 [Example 8, 4-(2-amino-5-((7R,8aS)-4-oxohexahydro-1H-pyrrolo[2,1-c][1,4]oxazin-7-yl)pyridin-3-yl)-N—((S)-1-(3-chlorophenyl)-2-hydroxyethyl)-2-fluorobenzamide] | 4.12 nM
3 | N=C1OC[C@@H]2C[C@H](c3cnc(N)c(-c4ccc(C(=O)N[C@H](CO)c5cccc(Cl)c5)c(F)c4)c3)CN12 [Example 10, 4-(2-amino-5-((6R,7aS)-3-iminohexahydropyrrolo[1,2-c]oxazol-6-yl)pyridin-3-yl)-N—((S)-1-(3-chlorophenyl)-2-hydroxyethyl)-2-fluorobenzamide] | 12.1 nM
4 | Nc1ncc([C@H]2CC[C@H](O)CC2)nc1-c1ccc(C(=O)NCc2ccccc2)c(F)c1 [Example 14, 4-(3-amino-6-((1r,4r)-4-hydroxycyclohexyl)pyrazin-2-yl)-N-benzyl-2-fluorobenzamide] | 12.7 nM
5 | Nc1ncc([C@H]2CC[C@@H](O)CC2)nc1-c1ccc(C(=O)NCc2ccccc2)c(F)c1 [Example 15, 4-(3-amino-6-((1s,4s)-4-hydroxycyclohexyl)pyrazin-2-yl)-N-benzyl-2-fluorobenzamide] | 235 nM
6 | COC(=O)CCc1cnc(N)c(-c2ccc(C(=O)NCc3ccccc3)c(F)c2)n1 [Example 19, methyl 3-(5-amino-6-(4-(benzylcarbamoyl)-3-fluorophenyl)pyrazin-2-yl)propanoate] | 6030 nM
7 | CNC(=O)CCc1cnc(N)c(-c2ccc(C(=O)NCc3ccccc3)c(F)c2)n1 [Example 20, 4-(3-amino-6-(3-(methylamino)-3-oxopropyl)pyrazin-2-yl)-N-benzyl-2-fluorobenzamide] | 1090 nM
8 | CS(=O)(=O)CCc1cnc(N)c(-c2ccc(C(=O)NCc3ccccc3)c(F)c2)n1 [Example 21, 4-(3-amino-6-(2-(methylsulfonyl)ethyl)pyrazin-2-yl)-N-benzyl-2-fluorobenzamide] | 2670 nM
9 | C[C@@H](NC(=O)c1ccc(-c2cc(C3CCN(C)C(=O)C3)cnc2N)cc1F)c1ccccc1 (stereo partly drawn) [Example 29, 4-(2-amino-5-(1-methyl-2-oxopiperidin-4-yl)pyridin-3-yl)-2-fluoro-N—((R)-1-phenylethyl)benzamide] | 75.2 nM
10 | C[C@@H](NC(=O)c1ccc(-c2cc(C3CCC(=O)N(C)C3)cnc2N)cc1F)c1cccc(Cl)c1 (stereo partly drawn) [Example 38, 4-(2-amino-5-(1-methyl-6-oxopiperidin-3-yl)pyridin-3-yl)-N—((R)-1-(3-chlorophenyl)ethyl)-2-fluorobenzamide] | 8.09 nM
11 | CN1CC(c2cnc(N)c(-c3ccc(C(=O)N[C@H](CO)c4ccccc4)c(F)c3)c2)CC1=O (stereo partly drawn) [Example 41, 4-(2-amino-5-(1-methyl-5-oxopyrrolidin-3-yl)pyridin-3-yl)-2-fluoro-N—((S)-2-hydroxy-1-phenylethyl)benzamide] | 51 nM
12 | CN1CC(c2cnc(N)c(-c3ccc(C(=O)N[C@H](CO)c4cccc(Cl)c4)c(F)c3)c2)CC1=O (stereo partly drawn) [Example 42, 4-(2-amino-5-(1-methyl-5-oxopyrrolidin-3-yl)pyridin-3-yl)-N—((S)-1-(3-chlorophenyl)-2-hydroxyethyl)-2-fluorobenzamide] | 5.44 nM
13 | CN1C[C@@H](c2cnc(N)c(-c3ccc(C(=O)N[C@H](CO)c4cccc(Cl)c4)c(F)c3)c2)CC1=O [Example 43, 4-(2-amino-5-((R)-1-methyl-5-oxopyrrolidin-3-yl)pyridin-3-yl)-N—((S)-1-(3-chlorophenyl)-2-hydroxyethyl)-2-fluorobenzamide] | 5.32 nM
14 | CN1C[C@H](c2cnc(N)c(-c3ccc(C(=O)N[C@H](CO)c4cccc(Cl)c4)c(F)c3)c2)CC1=O [Example 44, 4-(2-amino-5-((S)-1-methyl-5-oxopyrrolidin-3-yl)pyridin-3-yl)-N—((S)-1-(3-chlorophenyl)-2-hydroxyethyl)-2-fluorobenzamide] | 4.77 nM
15 | Nc1nccnc1-c1ccc(C(=O)NCc2ccccc2)cc1 [Example 46, 4-(3-aminopyrazin-2-yl)-N-benzylbenzamide] | 4790 nM
16 | Nc1ncc(C2CCOCC2)nc1-c1ccc(C(=O)N[C@@H]2CCCN(S(=O)(=O)c3ccccc3F)C2)c(F)c1 [Example 48, (R)-4-(3-amino-6-(tetrahydro-2H-pyran-4-yl)pyrazin-2-yl)-2-fluoro-N-(1-((2-fluorophenyl)sulfonyl)piperidin-3-yl)benzamide] | 122 nM
17 | Nc1ncc(C2CCOCC2)nc1-c1ccc(C(=O)N[C@@H]2CCCN(S(=O)(=O)c3ccccc3)C2)c(F)c1 [Example 49, (R)-4-(3-amino-6-(tetrahydro-2H-pyran-4-yl)pyrazin-2-yl)-2-fluoro-N-(1-(phenylsulfonyl)piperidin-3-yl)benzamide] | 45.9 nM
18 | CN(C(=O)c1ccc(-c2nc(C3CCOCC3)cnc2N)cc1F)[C@H](CO)c1ccccc1 [Example 53, (S)-4-(3-amino-6-(tetrahydro-2H-pyran-4-yl)pyrazin-2-yl)-2-fluoro-N-(2-hydroxy-1-phenylethyl)-N-methylbenzamide] | 12.3 nM
19 | Nc1ncc(C2CCOCC2)nc1-c1ccc(C(=O)N2COC[C@@H]2c2ccccc2)cc1 [Example 54, (S)-(4-(3-amino-6-(tetrahydro-2H-pyran-4-yl)pyrazin-2-yl)phenyl)(4-phenyloxazolidin-3-yl)methanone] | 107 nM
20 | CS(=O)(=O)N1CCC(c2cnc(N)c(-c3ccc(C(=O)N[C@H](CO)c4ccccc4)c(F)c3)n2)CC1 [Example 56, (S)-4-(3-amino-6-(1-(methylsulfonyl)piperidin-4-yl)pyrazin-2-yl)-2-fluoro-N-(2-hydroxy-1-phenylethyl)benzamide] | 3.89 nM

These reach a lower IC50. Values come first.

Row | IC50 | SMILES
21 | 3.77 nM | Nc1ncc([C@H]2C[C@H]3COC(=S)N3C2)cc1-c1ccc(C(=O)N[C@H](CO)c2cccc(Cl)c2)c(F)c1 [Example 11, 4-(2-amino-5-((6R,7aS)-3-thioxohexahydropyrrolo[1,2-c]oxazol-6-yl)pyridin-3-yl)-N—((S)-1-(3-chlorophenyl)-2-hydroxyethyl)-2-fluorobenzamide]
22 | 3.61 nM | CC1(c2cnc(N)c(-c3ccc(C(=O)N[C@H](CO)c4ccccc4)c(F)c3)c2)CCOCC1 [Example 45, (S)-4-(2-Amino-5-(4-methyltetrahydro-2H-pyran-4-yl)pyridin-3-yl)-2-fluoro-N-(2-hydroxy-1-phenylethyl)benzamide]
23 | 3.57 nM | Nc1ncc([C@H]2C[C@H]3COC(=O)N3C2)cc1-c1ccc(C(=O)N[C@H](CO)c2cccc(Cl)c2)c(F)c1 [Example 9, 4-(2-amino-5-((6R,7aS)-3-oxohexahydropyrrolo[1,2-c]oxazol-6-yl)pyridin-3-yl)-N—((S)-1-(3-chlorophenyl)-2-hydroxyethyl)-2-fluorobenzamide]
24 | 3.27 nM | CN1CCC(c2cnc(N)c(-c3ccc(C(=O)N[C@H](CO)c4cccc(Cl)c4)c(F)c3)c2)CC1=O (stereo partly drawn) [Example 26, 4-(2-amino-5-(1-methyl-2-oxopiperidin-4-yl)pyridin-3-yl)-N—((S)-1-(3-chlorophenyl)-2-hydroxyethyl)-2-fluorobenzamide]
25 | 1.6 nM | CN1C[C@@H](c2cnc(N)c(-c3ccc(C(=O)N[C@H](CO)c4cccc(Cl)c4)c(F)c3)c2)CCC1=O [Example 36, 4-(2-amino-5-((R)-1-methyl-6-oxopiperidin-3-yl)pyridin-3-yl)-N—((S)-1-(3-chlorophenyl)-2-hydroxyethyl)-2-fluorobenzamide]
26 | 1.14 nM | C[C@@H](NC(=O)c1ccc(-c2nc(C3CCN(S(C)(=O)=O)CC3)cnc2N)cc1F)c1cccc(Cl)c1 [Example 57]
27 | 1.09 nM | CN1CC(c2cnc(N)c(-c3ccc(C(=O)N[C@H](CO)c4cccc(Cl)c4)c(F)c3)c2)CCC1=O (stereo partly drawn) [Example 35, 4-(2-amino-5-(1-methyl-6-oxopiperidin-3-yl)pyridin-3-yl)-N—((S)-1-(3-chlorophenyl)-2-hydroxyethyl)-2-fluorobenzamide]
28 | 1.05 nM | CN1C[C@H](c2cnc(N)c(-c3ccc(C(=O)N[C@H](CO)c4cccc(Cl)c4)c(F)c3)c2)CCC1=O [Example 37, 4-(2-amino-5-((S)-1-methyl-6-oxopiperidin-3-yl)pyridin-3-yl)-N—((S)-1-(3-chlorophenyl)-2-hydroxyethyl)-2-fluorobenzamide]
29 | 0.818 nM | C[C@@H](NC(=O)c1ccc(-c2nc(C3CCOCC3)cnc2N)cc1F)c1ccccc1 [Example 47, (R)-4-(3-amino-6-(tetrahydro-2H-pyran-4-yl)pyrazin-2-yl)-2-fluoro-N-(1-phenylethyl)benzamide]
30 | 0.343 nM | Nc1ncc(C2CCC(=O)NC2)cc1-c1ccc(C(=O)N[C@H](CO)c2cccc(Cl)c2)c(F)c1 (stereo partly drawn) [Example 25, 4-(2-amino-5-(6-oxopiperidin-3-yl)pyridin-3-yl)-N—((S)-1-(3-chlorophenyl)-2-hydroxyethyl)-2-fluorobenzamide]
